Source: patent publication US9149038B2, “4-amino-6-(heterocyclic)picolinates and 6-amino-2-(heterocyclic)pyrimidine-4-carboxylates and their use as herbicides” (Dow AgroSciences LLC, priority 2013, dated 2015)
Where two headings read alike, the source gives them in different places.

Legend:
[1] = tested on: Key Broadleaf Weed and Crop Species; experiment: Post-Emergent Test II: postemergent herbicidal activity, visual rating after 14 d (Table 7); assay type: in vivo; details: post-emergence, 336 h; for pest or weed control at 35 g/ha: 35 g ai/ha; for pest or weed control at 70 g/ha: 70 g ai/ha; for pest or weed control at 140 g/ha: 140 g ai/ha
Method in brief: (§1)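 Track-sprayed young seedlings (first/second true leaf) at 187 L/ha across a 2-fold rate series from the high rate down to 1/16×. Kept in greenhouse at 23-29° C day, subirrigated. Injury rated by eye after 14 d, 0 = no injury, 100 = complete kill.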

[2] = tested on: Key Grass and Sedge Weeds as well as Grass Crops; experiment: Post-Emergent Test II: postemergent herbicidal activity, visual rating after 14 d (Table 8); assay type: in vivo; details: post-emergence, 336 h; for pest or weed control at 35 g/ha: 35 g ai/ha; for pest or weed control at 70 g/ha: 70 g ai/ha; for pest or weed control at 140 g/ha: 140 g ai/ha
Method in brief: as §1

[3] = ABUTH: velvetleaf (Abutilon theophrasti), read-out: Visual Growth Reduction (%) 14 Days After Application ABUTH
[4] = AMARE: redroot pigweed (Amaranthus retroflexus), read-out: Visual Growth Reduction (%) 14 Days After Application AMARE
[5] = BRSNN: oilseed rape, canola (Brassica napus), read-out: Visual Growth Reduction (%) 14 Days After Application BRSNN
[6] = CHEAL: lambsquarters (Chenopodium album), read-out: Visual Growth Reduction (%) 14 Days After Application CHEAL
[7] = EPHHL: wild poinsettia (Euphorbia heterophylla), read-out: Visual Growth Reduction (%) 14 Days After Application EPHHL
[8] = HELAN: sunflower (Helianthus annuus), read-out: Visual Growth Reduction (%) 14 Days After Application HELAN
[9] = barnyardgrass (Echinochloa crus-galli), read-out: Visual Growth Reduction (%) 14 Days After Application, ECHCG
[10] = maize, corn (Zea mays), read-out: Visual Growth Reduction (%) 14 Days After Application, ZEAMX
[11] = rice (Oryza sativa), read-out: Visual Growth Reduction (%) 14 Days After Application, ORYSA
[12] = wheat, spring (Triticum aestivum), read-out: Visual Growth Reduction (%) 14 Days After Application, TRZAS
[13] = yellow nutsedge (Cyperus esculentus), read-out: Visual Growth Reduction (%) 14 Days After Application, CYPES

In the case of `Nc1c(F)c(-c2ccc3c(c2)OCC3)nc(C(=O)O)c1Cl` [Compound 101], the pest or weed control at 35 g/ha [1, 3] is reported as 75 to 84%, the pest or weed control at 70 g/ha [1, 3] is reported as 85 to 94% and the pest or weed control at 140 g/ha [1, 3] is reported as 95 to 100%. The pest or weed control at 35 g/ha [1, 4] was 95 to 100%, the pest or weed control at 70 g/ha [1, 4] was 95 to 100% and the pest or weed control at 140 g/ha [1, 4] was 95 to 100%. The pest or weed control at 35 g/ha [1, 5] was 0 to 29%, the pest or weed control at 70 g/ha [1, 5] was 85 to 94% and the pest or weed control at 140 g/ha [1, 5] was 95 to 100%. For the same molecule, the pest or weed control at 35 g/ha [1, 6] was 95 to 100%, the pest or weed control at 70 g/ha [1, 6] was 95 to 100% and the pest or weed control at 140 g/ha [1, 6] was 95 to 100%. The pest or weed control at 35 g/ha [1, 7] was 0 to 29%, the pest or weed control at 70 g/ha [1, 7] was 0 to 29% and the pest or weed control at 140 g/ha [1, 7] was 30 to 44%. For the same molecule, the pest or weed control at 35 g/ha [1, 8] was 85 to 94%, the pest or weed control at 70 g/ha [1, 8] was 85 to 94% and the pest or weed control at 140 g/ha [1, 8] was 85 to 94%. For the same molecule, the pest or weed control at 35 g/ha [2, 9] was 60 to 74%, the pest or weed control at 70 g/ha [2, 9] was 60 to 74% and the pest or weed control at 140 g/ha [2, 9] was 75 to 84%. The pest or weed control at 35 g/ha [2, 10] was 0 to 29%, the pest or weed control at 70 g/ha [2, 10] was 0 to 29% and the pest or weed control at 140 g/ha [2, 10] was 0 to 29%. The pest or weed control at 35 g/ha [2, 11] was 0 to 29%, the pest or weed control at 70 g/ha [2, 11] was 0 to 29% and the pest or weed control at 140 g/ha [2, 11] was 0 to 29%. The pest or weed control at 35 g/ha [2, 12] was 0 to 29%, the pest or weed control at 70 g/ha [2, 12] was 0 to 29% and the pest or weed control at 140 g/ha [2, 12] was 0 to 29%. For the same molecule, the pest or weed control at 35 g/ha [2, 13] was 0 to 29%, the pest or weed control at 70 g/ha [2, 13] was 0 to 29% and the pest or weed control at 140 g/ha [2, 13] was 0 to 29%.
